Assay [1] concerns the target T1, Vasopressin V2 receptor (Homo sapiens, UniProt P30518). The assay can be described thus: Binding affinity against human Vasopressin V2 receptor expressed in HeLa cells was determined. The format is cell-based.
Assay [2] addresses Vasopressin V2 receptor (Rattus norvegicus, UniProt Q00788). The assay can be described thus: Binding affinity against Vasopressin V2 receptor was determined in Brattleboro rats.
Assay [3] addresses T1, Vasopressin V2 receptor. The assay can be described thus: Percentage of maximal cAMP accumulation at a concentration of 10e-4 M was done in HeLa cells expressing the human Vasopressin V2 receptor. The assay is classed as functional, cell-based.

T1 sequence (P30518 whole entry): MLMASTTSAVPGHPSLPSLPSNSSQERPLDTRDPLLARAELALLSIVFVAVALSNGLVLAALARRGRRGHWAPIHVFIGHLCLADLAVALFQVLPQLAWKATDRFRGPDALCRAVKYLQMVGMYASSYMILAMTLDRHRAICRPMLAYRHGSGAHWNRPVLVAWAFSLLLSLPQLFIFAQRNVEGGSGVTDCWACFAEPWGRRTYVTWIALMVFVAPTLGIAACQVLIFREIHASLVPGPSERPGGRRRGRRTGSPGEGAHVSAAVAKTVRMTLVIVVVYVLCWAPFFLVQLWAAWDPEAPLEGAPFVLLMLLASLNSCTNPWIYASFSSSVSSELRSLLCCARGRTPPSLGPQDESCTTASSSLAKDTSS
Sequence of Vasopressin V2 receptor (Rattus norvegicus, UniProt Q00788) (Q00788 whole entry): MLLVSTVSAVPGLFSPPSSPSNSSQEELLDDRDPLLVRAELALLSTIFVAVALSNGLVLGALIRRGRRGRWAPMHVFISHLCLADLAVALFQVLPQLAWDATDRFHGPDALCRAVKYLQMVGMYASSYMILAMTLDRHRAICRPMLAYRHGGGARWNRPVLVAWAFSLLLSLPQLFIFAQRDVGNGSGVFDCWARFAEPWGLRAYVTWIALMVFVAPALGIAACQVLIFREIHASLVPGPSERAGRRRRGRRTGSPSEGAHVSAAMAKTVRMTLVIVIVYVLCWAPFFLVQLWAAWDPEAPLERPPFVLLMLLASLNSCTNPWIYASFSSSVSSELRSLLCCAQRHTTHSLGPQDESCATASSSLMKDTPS

As for `CC(C)NC(=O)C[C@H]1CCCN(C(=O)c2ccc(N3CCCC3)cc2Cl)c2ccccc21`, the results for the concentration for half-maximal inhibition (IC50) on Vasopressin V2 receptor [1] and on Vasopressin V2 receptor [2] were 330 nM and 230 nM, respectively.

With `CC(C)NC(=O)C[C@@H]1CCCN(C(=O)c2ccc(N3CCCC3)cc2Cl)c2ccccc21`, the Accumulation at Vasopressin V2 receptor [3] is 22%. The IC50 (in general, the concentration that inhibits the measured activity by half) on Vasopressin V2 receptor [1] was 980 nM; on Vasopressin V2 receptor [2], 390 nM.

Source of the values: ChEMBL document CHEMBL1135753, “Characterization of orally active nonpeptide vasopressin V(2) receptor agonist. Synthesis and biological evaluation of both the (5R)- and (5S)-enantioisomers of 2-[1-(2-Chloro-4-pyrrolidin-1-yl-benzoyl)-2,3,4,5-tetrahydro-1H-1-benzazepin- 5-yl]-N-isopropylacetamide” (J Med Chem, 2002).
